Our source for the half-life in plasma and IC50 values is patent publication US7595400B2, “Process for the preparation of hexacyclic compounds” (Chugai Seiyaku Kabushiki Kaisha, priority 2003, dated 2009).

The conditions of data set [1]: converted to the inactive carboxylate form; cited from earlier work.
The next data set has as its system NCI-H460 (NSCLC). Nature of the data set: Anti-proliferative activity assay (WST-8), NCI-H460. It is filed as cell-based, human. The note with it: NCI-H460 non small cell lung cancer cells, 4 days incubation. How it is done:
(§1) The Antiproliferative activity assay was carried out as follows. A single suspension of tumor cells was inoculated to the serially diluted 96-well microtestplate. Then the testplate was incubated in the 5% CO2 ambience at 37° C. for 4 days (2-3×10^3 cells/well). The degree of cell growth in a monolayer was measured by using WST-8 (Dojindo, Japan). IC50 values of drugs against tumor cells were calculated as the concentration of drug yielding 50% OD of the control growth. The IC50 value measures the drug concentration for 50% of the growth of tumor cells in vitro as compared to the control.
(§2) Anti-tumor activities of hexacyclic compounds of formula [1] against in vitro growth of human tumor cell lines, HCT116 and DLD-1 of colorectal cancer (CRC) and QG56 and NCI-H460 of non small cell lung cancer (NSCLC) are shown in Table 1. These cell lines are commercially available via the American Type Culture Collection (ATTC).

The next data set has as its system QG56 (NSCLC). The data set is described as follows: Anti-proliferative activity assay (WST-8), QG56. It is filed as cell-based, human. The following applies: QG56 non small cell lung cancer cells, 4 days incubation. How it is done:
as §1, §2

In another data set the test system is HCT116 (CRC). Nature of the data set: Anti-proliferative activity assay (WST-8), HCT116. It is filed as cell-based, human. The following applies: HCT116 colorectal cancer cells, 4 days incubation. How it is done: as §1, §2
The subject of a further data set is DLD-1 (CRC). The data set is described as follows: Anti-proliferative activity assay (WST-8), DLD-1. It is filed as cell-based, human. The note with it: DLD-1 colorectal cancer cells, 4 days incubation. As for the experimental part:
as §1, §2

Take `CC[C@@]1(O)C(=O)OCc2c1cc1n(c2=O)Cc2cc3ccccc3nc2-1` [camptothecin]: the half-life in plasma result in data set [1] was “less than 30 min”.

`CCc1c2c(nc3ccc(O)cc13)-c1cc3c(c(=O)n1C2)COC(=O)[C@]3(O)CC` [SN-38, 7-ethyl-10-hydroxycamptothecin]: the IC50 in the data set with NCI-H460 (NSCLC) worked out at 21 nM; in the data set with QG56 (NSCLC) it was 27 nM; in the data set on HCT116 (CRC), 6.9 nM; in the data set with DLD-1 (CRC), 53 nM.
